Measurements taken from patent publication US20120015901A1, “METHODS AND PREPARATIONS FOR PROTECTING CRITICALLY ILL PATIENTS” (priority 2009, published 2012).

Experiments:
[1] = system: critically ill rabbits; assay: Toxicity of spermidine, sequential up-down allocation; assay type: in vivo, rabbit
Protocol: The toxicity of spermidine was assessed using a sequential up-down allocation technique. The administered dose of spermidine was determined by the response of the previous animal to a higher or lower dose (with incremental/decremental steps per 300 mg/d; minimum dose 600 mg/d). When the animal survived until day 4, this was considered as absence of acute toxicity. Mortality during the first 3 days was considered as acute toxicity. When there was no acute toxic effect, the next included animal would receive 300 mg spermidine/day more. When there was an acute toxic effect, the next included animal would receive 300 mg/day less (until the starting dose as a minimum). […] The protocol was otherwise similar as in the experiments described previously.

[2] = system: wild type yeast (BY4741) and null mutants; assay: Yeast chronological aging, survival plating (clonogenicity); assay type: cell-based; details: for Pro-survival effect of spermidine application (compared to WT): 4 mM; for increase of survival: day 20, 4 mM spermidine
Protocol: Experiments were carried out in BY4741 (MATa his3Δ1 leu2Δ0 met15Δ0 ura3Δ0) and respective null mutants, obtained from Euroscarf. The double mutant Δiki3Δsas3 was generated according to Gueldener at al. (2002) Nucleic Acids Res. 30, e23 by using gene-specific URA3-knockout cassette, amplified by PCR with pUG72 as template (Lovaas & Carlin (1991) Free Radic Biol Med 11, 455-46.). […] All spe1 double mutant strains were obtained through mating and sporulation of BY4741 Δspe1 with the respective BY4742 ([…]) single mutant strains. Single and double mutant strains were verified for correct gene deletion by PCR and further checked for consistent auxotrophies. […] Strains were grown at 28° C. on SC medium containing 0.17% yeast nitrogen base (Difco), 0.5% (NH4)2SO4 and 30 mg/l of all amino acids (except 80 mg/l histidine and 200 mg/l leucine), 30 mg/l adenine, and 320 mg/l uracil with 2% glucose (SCD). […] To construct NHP6A-EGFP in pUG35-Ura (giving rise to a C-terminally tagged chimeric fusion protein under control of the met25-Promotor) the insert was amplified by PCR using genomic DNA from BY4741 as template and cloned into pUG35 using the EcoRI restriction site. The EGFP-ATG8 construct in pUG36-Ura (N-terminally tagged fusion protein) was similarly generated, using EcoRI and ClaI restriction sites.
In case of experiments with Δspe1 (FIG. 24 A-E), all strains were inoculated to 5·10^4 cells/ml. […] Therefore, for calculation of survival rates in experiments using Δiki3Δsas3, cell numbers of each sample were determined after two pulse of sonication on ice with Sonifier 250 from Benson (Duty Cycle: 35; Output Control: 2.5). Tests for apoptotic (TUNEL and Annexin V staining) and necrotic (PI staining) markers as well as markers for oxidative stress (DHE staining) were performed as described in Dod et al. (1982) Eur J Biochem 121, 401-405). For quantifications using flow cytometry (BD FACSAria), 30,000 cells were evaluated and analyzed with BD FACSDiva software. Spermidine (S4139, Sigma, Austria) and putrescine (P5780, Sigma, Austria; 1 mM final concentration) were added to stationary cultures at day 1 of the aging experiments (24 h after inoculation). 1 M aqueous stock solution of spermidine was stored in one use aliquots at −20° C. for no longer than 1 month. For adjustment of extracellular pH (pHex) to 6 (±0.5), the required amount of sodium hydroxide was added 30 h after inoculation. The pHex was maintained at approximately 6 (±0.5) throughout the aging.

[3] = system: pre-aged wild type yeast cells; assay: Stress of pre-aged yeast by heat shock or hydrogen peroxide; assay type: cell-based; details: aged to day 24 with 4 mM spermidine; 4 h, 3 mM H2O2 or 42° C.
Protocol: Survival of pre-aged wild type cells stressed for 4 h with hydrogen peroxide (3 mM H2O2) or heat shock (42° C.) compared to unstressed cells. Cells were chronologically aged until day 24 with or without addition of 4 mM spermidine. Data represent means±SEM (n=4). *p<0.05 and ***p<0.001. B) Free thiol group concentration (indicative of oxidative stress level) in blood serum of aging mice with or without (control) supplementation of drinking water with 0.3 and 3 mM spermidine for 200 days. Data represent means±SEM (n=3). **p<0.01. (C) Intracellular spermidine of mouse liver cells, obtained from the same mice used for RSH measurements presented in (B). Data represent means±SEM (n=3).

NCCCCNCCCN [spermidine]
time of death after starting the spermidine infusion ([1]; continuous infusion of approximately 600 mg/day, both of two animals): 28 h | dose without acute toxic effects ([1]; half of the toxic dose, highest dose of the pilot study): 300 mg/day | dose with acute toxic effects ([1]; mortality during the first 3 days): 600 mg/day | dose with acute toxic effects ([1]; per kg body weight): approx 200 mg/kg/day | dose without acute toxic effects ([1]; per kg body weight): approximately 100 mg/kg/day | chronological life span of polyamine depleted cells [2]: restored | Pro-survival effect of spermidine application (compared to WT) ([2]; deletions image P00002, HDA2, increased in early aging (fast death of controls), BUT diminished or absent day 15 to 25): increased during | Pro-survival effect of spermidine application (compared to WT) ([2]; single deletion of HDA1): not affected | Pro-survival effect of spermidine application (compared to WT) ([2]; single deletions image P00004, RXT2, SDS3, SAP30): not affected | Pro-survival effect of spermidine application (compared to WT) ([2]; single deletions image P00005, HDA3, HOS1, HOS2, HOS3, HOS4, RPD3, PHO23, SIR2, HST1, HST2, SET3, SIF2): not affected | Pro-survival effect of spermidine application (compared to WT) ([2]; single deletions shown as image P00001, survival increased during early aging): reduced | Pro-survival effect of spermidine application (compared to WT) ([2]; single deletions shown as image P00003, during early aging (day 5 to 15)): slightly reduced | increase in yeast life span ([2]; BY4741 wild type, spermidine supplied at day 1 (4 mM)): up to 4 times | ability of spermidine to extend the chronological life span ([2]; deletion of SIR2): did not abrogate | longevity upon spermidine application ([2]; single deletion of HST1, HST2, HST3, HST4): did not affect longevity | increase of survival ([2]; wild type cells): 5 fold | anti-aging (pro-survival) effect of spermidine ([2]; Δiki3 and Δsas3 strains): partially abrogated | increase of survival ([2]; Δiki3Δsas3 cells): 1.3 fold | ROS accumulation and survival during aging ([2]; Δsod2 mutant cells, 4 mM spermidine): temporarily protects from excessive ROS accumulation and loss of survival | resistance against stress inflicted by heat shock or H2O2 treatment [3]: strong resistance
